Measurements published in patent US9403823B2, “Protein kinase inhibitors” (ORIBASE PHARMA, priority 2012, dated 2016).
Like-named read-outs stand apart in the source and are kept apart here.

How the values were obtained:
[1] = tested on: HepG2 cell line; test: In vitro cell proliferation assay (MTT), HepG2; format: cell-based; details: Homo sapiens, read-out: EC50, anti-proliferative activity
Protocol: (§1) 2) In Vitro Cell Proliferation Assays (Table 22 to Table 35)
(§2) Cancer cell lines (5×10^3 cells per well) or HUVEC (1×10^4 cells per well) or HRMEC (1×10^4 cells per well) were distributed in 96-well plates and incubating in duplicate with escalating concentrations (10 nM to 3 μM) of compounds for 72 hr. Cell proliferation was measured using MTT (3[4,5-dimethylthiazol-2-yl]-2,5-diphenyltetrazolium bromide).

[2] = tested on: HUVEC; test: In vitro cell proliferation assay (MTT), HUVEC; format: cell-based; details: Homo sapiens, read-out: EC50, anti-proliferative activity
Protocol: as §1, §2

[3] = molecular target: T1, BRAF (Homo sapiens, UniProt P15056); test: In vitro kinase assay (Z'-LYTE), BRAF; format: biochemical; details: read-out: % of inhibition of the kinase compared to the control
T1 construct: purchased Invitrogen
T1 sequence (P15056 whole entry): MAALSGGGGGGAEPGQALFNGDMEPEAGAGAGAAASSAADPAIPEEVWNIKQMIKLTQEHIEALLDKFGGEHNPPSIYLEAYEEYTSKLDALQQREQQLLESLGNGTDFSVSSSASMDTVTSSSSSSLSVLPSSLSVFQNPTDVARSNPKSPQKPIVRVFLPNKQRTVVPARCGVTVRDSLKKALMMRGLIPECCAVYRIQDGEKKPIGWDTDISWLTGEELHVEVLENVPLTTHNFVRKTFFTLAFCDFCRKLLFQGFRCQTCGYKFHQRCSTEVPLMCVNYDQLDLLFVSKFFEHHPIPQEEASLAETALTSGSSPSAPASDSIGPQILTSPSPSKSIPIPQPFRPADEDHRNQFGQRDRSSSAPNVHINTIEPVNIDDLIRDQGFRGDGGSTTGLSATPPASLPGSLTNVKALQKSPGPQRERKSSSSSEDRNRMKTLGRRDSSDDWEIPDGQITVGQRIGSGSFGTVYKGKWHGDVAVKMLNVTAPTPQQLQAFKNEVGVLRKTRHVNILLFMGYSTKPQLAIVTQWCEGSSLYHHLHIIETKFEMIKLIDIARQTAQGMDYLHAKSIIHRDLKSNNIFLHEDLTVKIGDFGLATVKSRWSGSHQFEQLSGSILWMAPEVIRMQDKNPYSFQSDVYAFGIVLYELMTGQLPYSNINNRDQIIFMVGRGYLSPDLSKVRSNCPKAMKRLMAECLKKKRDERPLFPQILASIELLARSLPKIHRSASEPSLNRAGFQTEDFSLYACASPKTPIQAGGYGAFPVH
Protocol: (§3) 1) In Vitro Kinase Assays (Table 10 to Table 21)
(§4) The inhibitory activity of the compounds on several kinases including BRAF, EGFR (ErbB1), EGFR (ErbB1) T790M L858R, FGFR2, KDR (VEGFR2), PDGFRA (PDGFR alpha), SRC and other was evaluated by Invitrogen using the Z′-LYTE® technology. Briefly, the Z′-LYTE® biochemical assay employs a fluorescence-based, coupled-enzyme format and is based on the differential sensitivity of phosphorylated and non-phosphorylated peptides to proteolytic cleavage. The peptide substrate is labeled with two fluorophores—one at each end—that make up a FRET pair. A ratiometric method, which calculates the ratio (the Emission Ratio) of donor emission to acceptor emission after excitation of the donor fluorophore at 400 nm, is used to quantitate reaction progress.
(§5) The compounds are screened in 1% DMSO (final) in the well. For 10 point titrations, 3-fold serial dilutions are conducted from the starting concentration. All Peptide/Kinase Mixtures are diluted to a 2× working concentration in the appropriate Kinase Buffer. All ATP Solutions are diluted to a 4× working concentration in Kinase Buffer (50 mM HEPES pH 7.5, 0.01% BRIJ-35, 10 mM MgCl2, 1 mM EGTA). ATP Km apparent is previously determined using a Z′-LYTE® assay.
(§6) Each compound was incubated at a concentration of 100 nM (excepted to test the activity against ABL and ABL T315I for which the compounds were incubated at a concentration of 10 μM) and the tables 10 to 21 summarize the results obtained showing the inhibitory power of a compound.

[4] = molecular target: T2, FGFR2 (Homo sapiens, UniProt P21802); test: In vitro kinase assay (Z'-LYTE), FGFR2; format: biochemical; details: read-out: % of inhibition of the kinase compared to the control
T2 construct: purchased Invitrogen
T2 sequence (P21802 22-821): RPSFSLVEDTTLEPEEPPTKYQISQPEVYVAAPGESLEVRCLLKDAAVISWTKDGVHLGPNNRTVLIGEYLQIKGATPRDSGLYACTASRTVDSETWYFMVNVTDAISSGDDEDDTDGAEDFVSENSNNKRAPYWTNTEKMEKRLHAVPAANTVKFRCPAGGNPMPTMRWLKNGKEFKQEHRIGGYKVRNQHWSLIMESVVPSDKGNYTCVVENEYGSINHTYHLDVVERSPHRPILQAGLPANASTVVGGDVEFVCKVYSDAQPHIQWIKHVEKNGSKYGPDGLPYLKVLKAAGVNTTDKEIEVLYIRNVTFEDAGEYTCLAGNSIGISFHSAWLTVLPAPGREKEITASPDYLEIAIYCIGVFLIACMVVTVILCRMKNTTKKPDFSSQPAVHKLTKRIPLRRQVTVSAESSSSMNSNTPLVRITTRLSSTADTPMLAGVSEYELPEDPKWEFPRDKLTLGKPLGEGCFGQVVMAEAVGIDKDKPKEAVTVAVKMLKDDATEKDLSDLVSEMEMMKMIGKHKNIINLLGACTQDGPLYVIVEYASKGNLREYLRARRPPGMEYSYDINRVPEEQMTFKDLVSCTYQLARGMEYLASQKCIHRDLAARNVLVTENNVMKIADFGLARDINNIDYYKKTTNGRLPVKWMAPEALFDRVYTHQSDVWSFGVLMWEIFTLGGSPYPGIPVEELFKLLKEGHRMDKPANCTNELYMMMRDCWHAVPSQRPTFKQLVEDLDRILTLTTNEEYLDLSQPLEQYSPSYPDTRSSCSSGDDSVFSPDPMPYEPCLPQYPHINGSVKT
Protocol: as §3, §4, §5, §6

[5] = molecular target: T3, EGFR (ErbB1) (Homo sapiens, UniProt P00533); test: In vitro kinase assay (Z'-LYTE), EGFR (ErbB1); format: biochemical; details: read-out: % of inhibition of the kinase compared to the control
T3 construct: purchased Invitrogen
T3 sequence (P00533 25-1210): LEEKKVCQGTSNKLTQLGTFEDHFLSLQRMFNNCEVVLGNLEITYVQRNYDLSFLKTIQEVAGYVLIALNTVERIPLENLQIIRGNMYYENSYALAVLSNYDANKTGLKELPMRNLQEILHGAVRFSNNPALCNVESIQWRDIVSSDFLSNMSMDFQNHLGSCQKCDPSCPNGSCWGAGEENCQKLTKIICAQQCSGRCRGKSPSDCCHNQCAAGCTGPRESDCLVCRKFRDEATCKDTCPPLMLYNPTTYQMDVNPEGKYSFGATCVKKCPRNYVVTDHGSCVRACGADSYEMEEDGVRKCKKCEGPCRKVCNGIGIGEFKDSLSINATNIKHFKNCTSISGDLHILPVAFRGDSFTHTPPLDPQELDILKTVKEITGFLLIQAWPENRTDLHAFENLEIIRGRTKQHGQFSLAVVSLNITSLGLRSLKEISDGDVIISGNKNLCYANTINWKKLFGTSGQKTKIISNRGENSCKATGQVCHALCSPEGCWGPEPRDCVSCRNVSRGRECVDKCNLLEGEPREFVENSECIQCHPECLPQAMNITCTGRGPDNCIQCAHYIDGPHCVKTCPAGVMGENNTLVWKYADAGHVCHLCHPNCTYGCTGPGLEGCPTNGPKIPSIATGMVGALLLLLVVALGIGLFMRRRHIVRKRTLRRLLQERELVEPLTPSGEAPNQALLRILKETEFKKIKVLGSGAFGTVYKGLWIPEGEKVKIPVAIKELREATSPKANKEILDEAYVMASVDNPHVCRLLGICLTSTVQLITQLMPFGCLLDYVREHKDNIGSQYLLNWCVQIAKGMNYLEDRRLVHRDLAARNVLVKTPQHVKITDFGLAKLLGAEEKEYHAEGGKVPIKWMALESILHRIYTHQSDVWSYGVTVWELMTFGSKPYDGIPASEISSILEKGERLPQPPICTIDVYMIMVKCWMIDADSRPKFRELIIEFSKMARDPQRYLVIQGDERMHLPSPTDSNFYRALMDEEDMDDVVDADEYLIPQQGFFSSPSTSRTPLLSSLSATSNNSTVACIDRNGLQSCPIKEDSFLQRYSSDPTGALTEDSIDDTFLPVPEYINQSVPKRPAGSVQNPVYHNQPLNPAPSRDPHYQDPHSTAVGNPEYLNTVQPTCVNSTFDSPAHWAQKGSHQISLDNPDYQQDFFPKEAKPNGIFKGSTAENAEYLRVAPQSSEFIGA
Protocol: as §3, §4, §5, §6

[6] = molecular target: T4, PDGFRA (PDGFR alpha) (Homo sapiens, UniProt P16234); test: In vitro kinase assay (Z'-LYTE), PDGFRA; format: biochemical; details: read-out: % of inhibition of the kinase compared to the control
T4 construct: purchased Invitrogen
T4 sequence (P16234 24-1089): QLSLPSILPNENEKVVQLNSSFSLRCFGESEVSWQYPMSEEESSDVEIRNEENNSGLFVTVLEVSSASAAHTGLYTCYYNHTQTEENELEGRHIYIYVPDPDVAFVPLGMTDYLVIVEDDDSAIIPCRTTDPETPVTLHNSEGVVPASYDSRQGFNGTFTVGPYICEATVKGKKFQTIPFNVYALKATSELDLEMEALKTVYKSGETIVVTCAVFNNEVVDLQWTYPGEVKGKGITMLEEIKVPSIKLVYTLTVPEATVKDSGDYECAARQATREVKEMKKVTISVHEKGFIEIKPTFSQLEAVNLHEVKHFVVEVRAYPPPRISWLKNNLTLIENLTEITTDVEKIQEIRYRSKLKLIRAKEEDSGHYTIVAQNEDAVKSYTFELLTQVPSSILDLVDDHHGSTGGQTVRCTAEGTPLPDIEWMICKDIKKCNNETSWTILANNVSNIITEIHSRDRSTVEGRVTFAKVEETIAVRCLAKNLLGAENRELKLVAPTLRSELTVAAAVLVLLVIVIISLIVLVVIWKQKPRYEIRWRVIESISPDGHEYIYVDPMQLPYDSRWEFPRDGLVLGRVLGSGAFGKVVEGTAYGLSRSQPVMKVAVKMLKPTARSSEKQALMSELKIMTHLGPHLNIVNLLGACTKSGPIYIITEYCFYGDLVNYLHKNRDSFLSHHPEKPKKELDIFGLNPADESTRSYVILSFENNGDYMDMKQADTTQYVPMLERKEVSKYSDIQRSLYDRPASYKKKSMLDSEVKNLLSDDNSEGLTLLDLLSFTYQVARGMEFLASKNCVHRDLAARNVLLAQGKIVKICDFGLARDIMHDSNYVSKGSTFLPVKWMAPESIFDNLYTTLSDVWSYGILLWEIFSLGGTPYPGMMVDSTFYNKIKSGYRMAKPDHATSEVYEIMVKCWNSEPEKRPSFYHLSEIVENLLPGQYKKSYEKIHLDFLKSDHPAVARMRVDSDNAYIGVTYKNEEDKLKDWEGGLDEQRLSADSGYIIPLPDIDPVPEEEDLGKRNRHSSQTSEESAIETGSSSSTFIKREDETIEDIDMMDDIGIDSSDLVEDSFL
Protocol: as §3, §4, §5, §6

[7] = molecular target: T5, SRC (Homo sapiens, UniProt P12931); test: In vitro kinase assay (Z'-LYTE), SRC; format: biochemical; details: read-out: % of inhibition of the kinase compared to the control
T5 construct: purchased Invitrogen
T5 sequence (P12931 whole entry): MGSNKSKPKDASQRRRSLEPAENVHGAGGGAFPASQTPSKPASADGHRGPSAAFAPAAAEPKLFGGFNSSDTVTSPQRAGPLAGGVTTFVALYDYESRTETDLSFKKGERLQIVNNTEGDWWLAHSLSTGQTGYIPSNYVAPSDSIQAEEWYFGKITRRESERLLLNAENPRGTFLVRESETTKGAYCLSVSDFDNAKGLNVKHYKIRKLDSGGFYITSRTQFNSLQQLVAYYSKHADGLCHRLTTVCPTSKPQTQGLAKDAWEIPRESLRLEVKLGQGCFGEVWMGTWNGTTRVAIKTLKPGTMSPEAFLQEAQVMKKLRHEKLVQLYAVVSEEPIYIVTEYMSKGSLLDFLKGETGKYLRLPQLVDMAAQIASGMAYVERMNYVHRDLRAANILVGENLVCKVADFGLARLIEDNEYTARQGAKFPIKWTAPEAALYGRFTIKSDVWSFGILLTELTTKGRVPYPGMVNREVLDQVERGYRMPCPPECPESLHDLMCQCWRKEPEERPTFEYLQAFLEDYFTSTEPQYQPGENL
Protocol: as §3, §4, §5, §6

[8] = molecular target: T6, KDR (VEGFR2) (Homo sapiens, UniProt P35968); test: In vitro kinase assay (Z'-LYTE), KDR (VEGFR2); format: biochemical; details: read-out: % of inhibition of the kinase compared to the control
T6 construct: purchased Invitrogen
Protocol: as §3, §4, §5, §6

SMILES	EC50 ([1]; HepG2, 72 hr, MTT) [nM]	EC50 ([2]; 72 hr, MTT) [nM]	inhibition at 0.1 µM [3] [%]	inhibition at 0.1 µM [4] [%]	inhibition at 0.1 µM [5] [%]	inhibition at 0.1 µM [6] [%]	inhibition at 0.1 µM [7] [%]	inhibition at 0.1 µM [8] [%]	EC50 ([1]; HepG2, 72 h) [nM]	EC50 ([2]; 72 h) [nM]
CC(=O)c1cc2cc(NCc3cc(NC(=O)c4cc[nH]c4)ccc3C)cnc2[nH]1 [OR0986, 1H-Pyrrole-3-carboxylic acid {3-[(2-acetyl-1H-pyrrolo[2,3-b]pyridin-5-ylamino)-methyl]-4-methyl-phenyl}-amide]	≥ 1000	≥ 1000	≥ 50	< 50	< 50	≥ 50	< 50	< 50		
CC(=O)c1cc2cc(NCc3cc(NC(=O)c4ccc(CN5CC[C@H](N(C)C)C5)c(C(F)(F)F)c4)ccc3F)cnc2[nH]1 [OR0971, N-{3-[(2-Acetyl-1H-pyrrolo[2,3-b]pyridin-5-ylamino)-methyl]-4-fluoro-phenyl}-4-((S)-3-dimethylamino-pyrrolidin-1-ylmethyl)-3-trifluoromethyl-benzamide]		≥ 1000	< 50	≥ 50	≥ 50			≥ 50	100 to 1000	
CC(=O)c1cc2cc(NCc3cc(NC(=O)Nc4cccnc4)ccc3C)cnc2[nH]1 [OR0897, 1-{3-[(2-Acetyl-1H-pyrrolo[2,3-b]pyridin-5-ylamino)-methyl]-4-methyl-phenyl}-3-pyridin-3-yl-urea]		≥ 1000	≥ 50	< 50	< 50	≥ 50	< 50	< 50	≤ 100	
CC(=O)c1cc2cc(NCc3cc(NC(=O)c4ccn[nH]4)ccc3C)cnc2[nH]1 [OR0987, 2H-Pyrazole-3-carboxylic acid {3-[(2-acetyl-1H-pyrrolo[2,3-b]pyridin-5-ylamino)-methyl]-4-methyl-phenyl}-amide]	≥ 1000	≥ 1000	≥ 50	< 50	< 50	≥ 50	< 50	≥ 50		
CC(=O)c1cc2cc(NCc3cc(NC(=O)c4ccnc(C(F)(F)F)c4)ccc3C)cnc2[nH]1 [OR0887, N-{3-[(2-Acetyl-1H-pyrrolo[2,3-b]pyridin-5-ylamino)-methyl]-4-methyl-phenyl}-2-trifluoromethyl-isonicotinamide]			≥ 50	< 50	< 50			≥ 50		100 to 1000
CC(=O)c1cc2cc(NC(=O)c3cccc(CNC(=O)c4ccc(CN5CCN(C)CC5)c(C(F)(F)F)c4)c3)cnc2[nH]1 [OR0984, N-[3-(2-Acetyl-1H-pyrrolo[2,3-b]pyridin-5-ylcarbamoyl)-benzyl]-4-(4-methyl-piperazin-1-ylmethyl)-3-trifluoromethyl-benzamide]	≥ 1000		< 50	< 50	< 50	< 50	< 50	< 50		
CC(=O)c1cc2cc(NCc3cc(NC(=O)c4ccc(C(F)(F)F)nc4)ccc3C)cnc2[nH]1 [OR0886, N-{3-[(2-Acetyl-1H-pyrrolo[2,3-b]pyridin-5-ylamino)-methyl]-4-methyl-phenyl}-6-trifluoromethyl-nicotinamide]	≥ 1000		< 50	< 50		≥ 50	< 50	< 50		100 to 1000
Cc1ccc(NC(=O)c2ccc(CN3CCN(C)CC3)c(C(F)(F)F)c2)cc1C(=O)Nc1cnc2[nH]c(C(=O)O)cc2c1 [OR0810, 5-{2-Methyl-5-[4-(4-methyl-piperazin-1-ylmethyl)-3-trifluoromethyl-benzoylamino]-benzoylamino}-1H-pyrrolo[2,3-b]pyridine-2-carboxylic acid]			< 50	≥ 50	≥ 50			≥ 50		
CC(=O)c1cc2cc(NCc3cccc(C(=O)Nc4cccnc4)c3)cnc2[nH]1 [OR0917, 3-[(2-Acetyl-1H-pyrrolo[2,3-b]pyridin-5-ylamino)-methyl]-N-pyridin-3-yl-benzamide]	≥ 1000	≥ 1000	< 50	≥ 50	≥ 50			≥ 50		
CC(=O)c1cc2cc(NCc3cc(NC(=O)c4cncc(C(F)(F)F)c4)ccc3F)cnc2[nH]1 [OR0970, N-{5-[(2-Acetyl-1H-pyrrolo[2,3-b]pyridin-5-ylamino)-methyl]-4-fluoro-phenyl}-5-trifluoromethyl-nicotinamide]		≥ 1000	≥ 50	< 50	< 50			≥ 50	100 to 1000	
CC(=O)c1cc2cc(NCc3cc(NC(=O)c4cccc(C(F)(F)F)c4)ccc3C)cnc2[nH]1 [OR0893, N-{3-[(2-Acetyl-1H-pyrrolo[2,3-b]pyridin-5-ylamino)-methyl]-4-methyl-phenyl}-3-trifluoromethyl-benzamide]			≥ 50	< 50	≥ 50			≥ 50	≤ 100	100 to 1000
Cc1ccc(NC(=O)c2ccc(CN3CC[C@H](N(C)C)C3)c(C(F)(F)F)c2)cc1CNc1cnc2[nH]c(C(=O)O)cc2c1 [OR0814, 5-{5-[4-((S)-3-Dimethylamino-pyrrolidin-1-ylmethyl)-3-trifluoromethyl-benzoylamino]-2-methyl-benzylamino}-1H-pyrrolo[2,3-b]pyridine-2-carboxylic acid]			< 50	≥ 50	≥ 50			≥ 50		
CC(=O)c1cc2cc(NCc3cccc(NC(=O)c4ccc(CN5CC[C@H](N(C)C)C5)c(C(F)(F)F)c4)c3)cnc2[nH]1 [OR0927, N-{3-[(2-Acetyl-1H-pyrrolo[2,3-b]pyridin-5-ylamino)-methyl]-phenyl}-4-((S)-3-dimethylamino-pyrrolidin-1-ylmethyl)-3-trifluoromethyl-benzamide]			< 50	≥ 50	≥ 50			≥ 50	100 to 1000	100 to 1000
CC(=O)c1cc2cc(NCc3cc(NC(=O)c4ccc(CN5CCC(N(C)C)C5)c(F)c4)ccc3C)cnc2[nH]1 (centres unmarked) [OR0973, N-{3-[(2-Acetyl-1H-pyrrolo[2,3-b]pyridin-5-ylamino)-methyl]-4-methyl-phenyl}-4-(3-dimethylamino-pyrrolidin-1-ylmethyl)-3-fluoro-benzamide]		≥ 1000	≥ 50	< 50	≥ 50			≥ 50	100 to 1000	
CC(=O)c1cc2cc(NCc3ccc(F)c(NC(=O)c4cncc(C(F)(F)F)c4)c3)cnc2[nH]1 [OR0894, N-{5-[(2-Acetyl-1H-pyrrolo[2,3-b]pyridin-5-ylamino)-methyl]-2-fluoro-phenyl}-5-trifluoromethyl-nicotinamide]		≥ 1000	≥ 50	≥ 50	< 50			≥ 50		
